Here are results for three compounds from patent US9605008B2, “Benzyl-1H-pyrazolo[3,4-b]pyridines and use thereof” (BAYER PHARMA AKTIENGESELLSCHAFT, priority 2013, dated 2017).

In experiment [1] the target is recombinant guanylate cyclase reporter cell line (Rattus norvegicus (Rat), UniProt P19686+P20595). As to the kind of experiment: Effect on a recombinant guanylate cyclase reporter cell line. Type of experiment: cell-based. The following applies: in some cases means of individual determinations. As for the experimental part:
B-2. Effect on a Recombinant Guanylate Cyclase Reporter Cell Line
The cellular activity of the compounds according to the invention is determined using a recombinant guanylate cyclase reporter cell line, as described in F. Wunder et al., Anal. Biochem. 339, 104-112 (2005).
Representative values (MEC=minimum effective concentration) for the compounds according to the invention are shown in the table below (Table 1; in some cases as means of individual determinations): […]

The target of experiment [2] is human phosphodiesterase 5 (PDE 5) (Homo sapiens (Human), UniProt O76074). Put plainly: Inhibition of human phosphodiesterase 5 (PDE 5). The following applies: PDE 5 preparation from human platelets; [8-3H] cGMP substrate, SPA; in some cases means of individual determinations. It counts as biochemical. As for the experimental part:
B-3. Inhibition of Human Phosphodiesterase 5 (PDE 5)
PDE 5 preparations are obtained from human platelets by disruption (Microfluidizer®, 800 bar, 3 passes), followed by centrifugation (75000 g, 60 min, 4° C.) and ion exchange chromatography of the supernatant on a Mono Q 10/10 column (linear sodium chloride gradient, elution with a 0.2-0.3M solution of sodium chloride in buffer (20 mM Hepes pH 7.2, 2 mM magnesium chloride). Fractions having PDE 5 activity are combined (PDE 5 preparation) and stored at −80° C.
To determine their in vitro action on human PDE 5, the test substances are dissolved in 100% DMSO and serially diluted. Typically, dilution series (1:3) from 200 μM to 0.091 μM are prepared (resulting final concentrations in the test: 4 μM to 0.0018 μM). In each case 2 μl of the diluted substance solutions are placed into the wells of microtitre plates (Isoplate-96/200W; Perkin Elmer). Subsequently, 50 μl of a dilution of the above-described PDE 5 preparation are added. The dilution of the PDE 5 preparation is chosen such that during the later incubation less than 70% of the substrate are converted (typical dilution: 1:100; dilution buffer: 50 mM tris/hydrochloric acid pH 7.5, 8.3 mM magnesium chloride, 1.7 mM EDTA, 0.2% BSA). The substrate, [8-^3H] cyclic guanosine-3′,5′-monophosphate (1 μCi/μl; Perkin Elmer) is diluted 1:2000 with assay buffer (50 mM tris/hydrochloric acid pH 7.5, 8.3 mM magnesium chloride, 1.7 mM EDTA) to a concentration of 0.0005 μCi/μl. By addition of 50 μl (0.025 μCi) of the diluted substrate, the enzyme reaction is finally started. The test mixtures are incubated at room temperature for 60 min and the reaction is stopped by adding 25 μl of a suspension of 18 mg/ml yttrium scintillation proximity beads in water (phosphodiesterase beads for SPA assays, RPNQ 0150, Perkin Elmer). The microtitre plates are sealed with a film and left to stand at room temperature for 60 min. Subsequently, the plates are analysed for 30 s per well in a Microbeta scintillation counter (Perkin Elmer). IC50 values are determined using the graphic plot of the substance concentration against percentage PDE 5 inhibition.

Sequence of recombinant guanylate cyclase reporter cell line (P19686 whole entry): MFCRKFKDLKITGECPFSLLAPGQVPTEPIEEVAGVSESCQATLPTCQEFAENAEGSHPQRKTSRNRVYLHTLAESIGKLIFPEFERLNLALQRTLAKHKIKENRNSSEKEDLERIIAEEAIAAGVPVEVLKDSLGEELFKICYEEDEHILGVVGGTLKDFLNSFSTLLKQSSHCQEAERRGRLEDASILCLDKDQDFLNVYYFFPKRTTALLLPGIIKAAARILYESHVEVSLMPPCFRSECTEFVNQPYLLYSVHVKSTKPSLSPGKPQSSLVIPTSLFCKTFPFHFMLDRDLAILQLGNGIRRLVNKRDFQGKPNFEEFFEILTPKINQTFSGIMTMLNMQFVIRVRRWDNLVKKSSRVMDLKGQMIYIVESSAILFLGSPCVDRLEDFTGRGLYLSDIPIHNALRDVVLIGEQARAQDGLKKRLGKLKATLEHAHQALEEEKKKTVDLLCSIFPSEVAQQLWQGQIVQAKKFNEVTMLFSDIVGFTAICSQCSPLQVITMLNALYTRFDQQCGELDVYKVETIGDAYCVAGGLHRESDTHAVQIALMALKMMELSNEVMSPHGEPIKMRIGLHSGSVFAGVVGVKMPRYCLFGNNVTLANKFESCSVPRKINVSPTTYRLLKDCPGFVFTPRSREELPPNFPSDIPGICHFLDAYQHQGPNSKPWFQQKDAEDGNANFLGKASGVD
Sequence of recombinant guanylate cyclase reporter cell line (P20595 whole entry): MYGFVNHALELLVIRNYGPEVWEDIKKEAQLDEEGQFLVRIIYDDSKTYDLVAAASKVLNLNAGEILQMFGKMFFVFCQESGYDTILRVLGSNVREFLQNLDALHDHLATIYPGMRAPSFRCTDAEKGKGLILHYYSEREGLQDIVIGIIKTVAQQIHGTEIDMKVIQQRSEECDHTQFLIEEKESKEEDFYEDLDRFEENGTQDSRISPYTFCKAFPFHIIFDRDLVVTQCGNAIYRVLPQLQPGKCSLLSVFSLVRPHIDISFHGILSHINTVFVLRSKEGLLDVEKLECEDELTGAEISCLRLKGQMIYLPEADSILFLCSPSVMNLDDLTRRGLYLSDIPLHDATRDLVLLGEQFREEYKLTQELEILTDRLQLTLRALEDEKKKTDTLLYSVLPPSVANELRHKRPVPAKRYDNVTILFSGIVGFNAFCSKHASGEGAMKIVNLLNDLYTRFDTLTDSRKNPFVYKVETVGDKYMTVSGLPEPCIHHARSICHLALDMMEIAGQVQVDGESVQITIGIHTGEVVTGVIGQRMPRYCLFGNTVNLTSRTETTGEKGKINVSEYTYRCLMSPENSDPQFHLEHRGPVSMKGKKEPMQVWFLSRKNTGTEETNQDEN

Turning to `Cc1nc2c(cc1F)c(-c1nnc3c(n1)NC(=O)C3(C)C)nn2Cc1c(F)ccc(F)c1F` [Example 11, 3-[5-Fluoro-6-methyl-1-(2,3,6-trifluorobenzyl)-1H-pyrazolo[3,4-b]pyridin-3-yl]-7,7-dimethyl-5,7-dihydro-6H-pyrrolo[2,3-e][1,2,4]triazin-6-one], the “MEC (minimum effective concentration)” value in experiment [1] worked out at 30 nM. This compound also had an IC50 in experiment [2] of 27 nM.
The matching figures for `Cc1ccc2c(-c3nnc4c(n3)NC(=O)C43CC3)nn(Cc3ccc(C)c(F)c3F)c2n1` [Example 26, 3′-[1-(2,3-Difluoro-4-methylbenzyl)-6-methyl-1H-pyrazolo[3,4-b]pyridin-3-yl]spiro[cyclopropane-1,7′-pyrrolo[2,3-e][1,2,4]triazin]-6′(5′H)-one]: 300 nM and 4 nM.
`Cc1ccc(Cn2nc(-c3nnc4c(n3)NC(=O)C4(C)C)c3cc(F)c(C)nc32)c(F)c1` [Example 5, 3-[5-Fluoro-1-(2-fluoro-4-methylbenzyl)-6-methyl-1H-pyrazolo[3,4-b]pyridin-3-yl]-7,7-dimethyl-5,7-dihydro-6H-pyrrolo[2,3-e][1,2,4]triazin-6-one]: in experiment [1], the “MEC (minimum effective concentration)” value is on record as 100 nM. Moreover, the IC50 in experiment [2] was 1.5 nM.
